Experimental data from the NIST ThermoML archive (doi:10.1016/j.jct.2013.05.051).
± gives the expanded uncertainty stated by the source.

Experiment: xn = mol fraction of the nth substance listed
Conditions: Liquid, Vibrating tube method

CCCCCCCO [heptan-1-ol] + CCCCCCC
mass density [kg/m3]
Conditions | x1 = 0.1493 | x1 = 0.3215 | x1 = 0.5226 | x1 = 0.6698 | x1 = 0.8469 | x1 = 1
313.15 K, 50000 kPa | 725.8 ± 1.5 | 748 ± 1.6 | 774.1 ± 1.6 | 793.9 ± 1.6 | 823.8 ± 4.1 | 837.2 ± 1.7
313.15 K, 55000 kPa | 728.8 ± 1.6 | 750.9 ± 1.6 | 776.9 ± 1.6 | 796.6 ± 1.6 | 826.4 ± 4.1 | 839.7 ± 1.7
313.15 K, 60000 kPa | 731.8 ± 1.6 | 753.8 ± 1.6 | 779.6 ± 1.6 | 799.2 ± 1.6 | 828.8 ± 4.1 | 842.1 ± 1.7
313.15 K, 65000 kPa | 734.6 ± 1.6 | 756.5 ± 1.6 | 782.2 ± 1.6 | 801.8 ± 1.6 | 831.2 ± 4.1 | 844.4 ± 1.7
313.15 K, 70000 kPa | 737.3 ± 1.6 | 759.1 ± 1.6 | 784.8 ± 1.6 | 804.2 ± 1.6 | 833.6 ± 4.1 | 846.7 ± 1.7
313.15 K, 80000 kPa | 742.5 ± 1.7 | 764.2 ± 1.7 | 789.6 ± 1.7 | 808.9 ± 1.7 | 838 ± 4.1 | 851.1 ± 1.7
313.15 K, 90000 kPa | 747.5 ± 1.7 | 769 ± 1.7 | 794.3 ± 1.7 | 813.5 ± 1.7 | 842.4 ± 4.1 | 855.3 ± 1.8
313.15 K, 100000 kPa | 752.1 ± 1.7 | 773.6 ± 1.7 | 798.7 ± 1.7 | 817.7 ± 1.7 | 846.4 ± 4.1 | 859.3 ± 1.8
313.15 K, 110000 kPa | 756.6 ± 1.8 | 778 ± 1.8 | 803 ± 1.8 | 821.9 ± 1.8 | 850.4 ± 4.1 | 863.2 ± 1.8
313.15 K, 120000 kPa | 760.8 ± 1.8 | 782.1 ± 1.8 | 807 ± 1.8 | 825.8 ± 1.8 | 854.2 ± 4.2 | 867 ± 1.8
313.15 K, 130000 kPa | 765 ± 1.9 | 786.2 ± 1.8 | 810.9 ± 1.8 | 829.7 ± 1.8 | 857.9 ± 4.2 | 870.6 ± 1.9
313.15 K, 140000 kPa | 768.9 ± 1.9 | 790.1 ± 1.9 | 814.7 ± 1.9 | 833.4 ± 1.8 | 861.5 ± 4.2 | 874.2 ± 1.9
333.15 K, 100 kPa | 669.3 ± 1.4 | 693.9 ± 1.4 | 722.8 ± 1.4 | 745 ± 1.4 | 778 ± 4 | 793.3 ± 1.5
333.15 K, 1000 kPa | 670.5 ± 1.4 | 694.9 ± 1.4 | 723.7 ± 1.4 | 745.8 ± 1.5 | 778.8 ± 4 | 794 ± 1.5
333.15 K, 5000 kPa | 675.1 ± 1.4 | 699.1 ± 1.4 | 727.6 ± 1.4 | 749.5 ± 1.5 | 782 ± 4 | 797.1 ± 1.5
333.15 K, 10000 kPa | 680.5 ± 1.4 | 704.1 ± 1.4 | 732.1 ± 1.5 | 753.7 ± 1.5 | 785.9 ± 4 | 800.7 ± 1.5
333.15 K, 15000 kPa | 685.6 ± 1.4 | 708.9 ± 1.5 | 736.5 ± 1.5 | 757.8 ± 1.5 | 789.7 ± 4 | 804.3 ± 1.6
333.15 K, 20000 kPa | 690.2 ± 1.5 | 713.2 ± 1.5 | 740.5 ± 1.5 | 761.7 ± 1.5 | 793.1 ± 4 | 807.7 ± 1.6
333.15 K, 25000 kPa | 694.5 ± 1.5 | 717.3 ± 1.5 | 744.4 ± 1.5 | 765.3 ± 1.5 | 796.5 ± 4.1 | 810.8 ± 1.6
333.15 K, 30000 kPa | 698.8 ± 1.5 | 721.2 ± 1.5 | 748.1 ± 1.5 | 768.8 ± 1.5 | 799.7 ± 4.1 | 813.9 ± 1.6
333.15 K, 35000 kPa | 702.7 ± 1.5 | 725 ± 1.5 | 751.6 ± 1.5 | 772.1 ± 1.5 | 802.8 ± 4.1 | 816.9 ± 1.6
333.15 K, 40000 kPa | 706.4 ± 1.5 | 728.5 ± 1.5 | 755 ± 1.5 | 775.3 ± 1.6 | 805.8 ± 4.1 | 819.8 ± 1.6
333.15 K, 45000 kPa | 710 ± 1.5 | 731.9 ± 1.5 | 758.1 ± 1.6 | 778.3 ± 1.6 | 808.7 ± 4.1 | 822.4 ± 1.7
333.15 K, 50000 kPa | 713.5 ± 1.6 | 735.2 ± 1.6 | 761.3 ± 1.6 | 781.4 ± 1.6 | 811.5 ± 4.1 | 825.2 ± 1.7
333.15 K, 55000 kPa | 716.7 ± 1.6 | 738.3 ± 1.6 | 764.3 ± 1.6 | 784.2 ± 1.6 | 814.2 ± 4.1 | 827.8 ± 1.7
333.15 K, 60000 kPa | 719.9 ± 1.6 | 741.3 ± 1.6 | 767.2 ± 1.6 | 787 ± 1.6 | 816.8 ± 4.1 | 830.3 ± 1.7
333.15 K, 65000 kPa | 723 ± 1.6 | 744.3 ± 1.6 | 770 ± 1.6 | 789.8 ± 1.6 | 819.4 ± 4.1 | 832.9 ± 1.7
333.15 K, 70000 kPa | 726 ± 1.6 | 747.2 ± 1.6 | 772.8 ± 1.6 | 792.4 ± 1.7 | 821.9 ± 4.1 | 835.3 ± 1.7
333.15 K, 80000 kPa | 731.6 ± 1.7 | 752.6 ± 1.7 | 778 ± 1.7 | 797.4 ± 1.7 | 826.7 ± 4.1 | 839.9 ± 1.8
333.15 K, 90000 kPa | 737 ± 1.7 | 757.8 ± 1.7 | 783 ± 1.7 | 802.3 ± 1.7 | 831.3 ± 4.1 | 844.5 ± 1.8
333.15 K, 100000 kPa | 742 ± 1.8 | 762.6 ± 1.8 | 787.7 ± 1.7 | 806.8 ± 1.8 | 835.6 ± 4.1 | 848.7 ± 1.8
333.15 K, 110000 kPa | 746.8 ± 1.8 | 767.3 ± 1.8 | 792.2 ± 1.8 | 811.2 ± 1.8 | 839.8 ± 4.2 | 852.8 ± 1.8
333.15 K, 120000 kPa | 751.3 ± 1.9 | 771.6 ± 1.8 | 796.4 ± 1.8 | 815.4 ± 1.8 | 843.8 ± 4.2 | 856.8 ± 1.9
333.15 K, 130000 kPa | 755.6 ± 1.9 | 775.8 ± 1.9 | 800.6 ± 1.9 | 819.4 ± 1.8 | 847.7 ± 4.2 | 860.5 ± 1.9
333.15 K, 140000 kPa | 759.8 ± 2 | – | – | – | – | –
